pIC50: −log10 of the molar value.
molecular target: HSP90 (Homo sapiens, UniProt P07900); assay: HSP90 inhibition (HSP90 IC50); assay type: biochemical

| pIC50 | Compound |
| --- | --- |
| > 6.30 | NC(=O)c1cc(Br)c(C(=O)N[C@H]2C[C@H]3CC[C@@H](C2)N3c2ccc(C(=O)C3CC3)cn2)cc1NC1CCC1 [2-bromo-5-(cyclobutylamino)-N-{8-[5-(cyclopropylcarbonyl)pyridin-2-yl]-8-azabicyclo[3.2.1]oct-3-endo-yl}benzene-1,4-dicarboxamide] |
| > 6.30 | NC(=O)c1cc(Br)c(C(=O)N[C@H]2C[C@H]3CC[C@@H](C2)N3c2ccc(C(=O)C3CC3)cn2)cc1NC1CCCC1 [2-bromo-5-(cyclopentylamino)-N-{8-[5-(cyclopropylcarbonyl)pyridin-2-yl]-8-azabicyclo[3.2.1]oct-3-endo-yl}benzene-1,4-dicarboxamide] |
| > 6.30 | CC(C)Nc1cc(C(=O)N[C@H]2C[C@H]3CC[C@@H](C2)N3c2ccc(C(=O)C3CC3)cn2)c(Br)cc1C(N)=O [2-bromo-N-{8-(5-(cyclopropylcarbonyl)pyridin-2-yl]-8-azabicyclo[3.2.1]oct-3-endo-yl}-5-[(1-methylethyl)amino]benzene-1,4-dicarboxamide] |
| > 6.30 | CCCNc1cc(C(=O)N[C@H]2C[C@H]3CC[C@@H](C2)N3c2ccc(C(=O)C3CC3)cn2)c(Br)cc1C(N)=O [2-bromo-N-{8-[5-(cyclopropylcarbonyl)pyridin-2-yl]-8-azabicyclo[3.2.1]oct-3-endo-yl}-5-(propylamino)benzene-1,4-dicarboxamide] |
| > 6.30 | CC(C)(C)Nc1cc(C(=O)N[C@H]2C[C@H]3CC[C@@H](C2)N3c2ccc(C(=O)C3CC3)cn2)c(Br)cc1C(N)=O [2-bromo-N-{8-[5-(cyclopropylcarbonyl)pyridin-2-yl]-8-azabicyclo[3.2.1]oct-3-endo-yl}-5-[(1,1-dimethylethyl)amino]benzene-1,4-dicarboxamide] |
| > 6.30 | CCC(CC)Nc1cc(C(=O)N[C@H]2C[C@H]3CC[C@@H](C2)N3c2ccc(C(=O)C3CC3)cn2)c(Br)cc1C(N)=O [2-bromo-N-{8-[5-(cyclopropylcarbonyl)pyridin-2-yl]-8-azabicyclo[3.2.1]oct-3-endo-yl}-5-[(1-ethylpropyl)amino]benzene-1,4-dicarboxamide] |
| > 6.30 | CC(C)(C)CNc1cc(C(=O)N[C@H]2C[C@H]3CC[C@@H](C2)N3c2ccc(C(=O)C3CC3)cn2)c(Br)cc1C(N)=O [2-bromo-N-{8-[5-(cyclopropylcarbonyl)pyridin-2-yl]-8-azabicyclo[3.2.1]oct-3-endo-yl}-5-[(2,2-dimethylpropyl)amino]benzene-1,4-dicarboxamide] |
| > 6.30 | CC(C)CNc1cc(C(=O)N[C@H]2C[C@H]3CC[C@@H](C2)N3c2ccc(C(=O)C3CC3)cn2)c(Br)cc1C(N)=O [2-bromo-N-{8-[5-(cyclopropylcarbonyl)pyridin-2-yl]-8-azabicyclo[3.2.1]oct-3-endo-yl}-5-[(2-methylpropyl)amino]benzene-1,4-dicarboxamide] |
| > 6.30 | NC(=O)c1cc(Br)c(C(=O)N[C@H]2C[C@H]3CC[C@@H](C2)N3c2ccc(C(=O)C3CC3)cn2)cc1NCCC(F)(F)F [2-bromo-N-{8-[5-(cyclopropylcarbonyl)pyridin-2-yl]-8-azabicyclo[3.2.1]oct-3-endo-yl}-5-[(3,3,3-trifluoropropyl)amino]benzene-1,4-dicarboxamide] |
| > 6.30 | NC(=O)c1cc(Br)c(C(=O)N[C@H]2C[C@H]3CC[C@@H](C2)N3c2ccc(C(=O)C3CC3)cn2)cc1NCC1CC1 [2-bromo-N-{8-[5-(cyclopropylcarbonyl)pyridin-2-yl]-8-azabicyclo[3.2.1]oct-3-endo-yl}-5-[(cyclopropylmethyl)amino]benzene-1,4-dicarboxamide] |
| > 6.30 | CC(C)[C@@H](C)Nc1cc(C(=O)NC2CC3CCC(C2)N3c2ccc(C(=O)C3CC3)cn2)c(Br)cc1C(N)=O (stereo partly drawn) [2-bromo-N-{8-[5-(cyclopropylcarbonyl)pyridin-2-yl]-8-azabicyclo[3.2.1]oct-3-endo-yl}-5-{[(1R)-1 2-dimethylpropyl]amino}benzene-1,4-dicarboxamide] |
| > 6.30 | CC[C@@H](C)Nc1cc(C(=O)NC2CC3CCC(C2)N3c2ccc(C(=O)C3CC3)cn2)c(Br)cc1C(N)=O (stereo partly drawn) [2-bromo-N-{8-[5-(cyclopropylcarbonyl)pyridin-2-yl]-8-azabicyclo[3.2.1]oct-3-endo-yl}-5-{[(1R)-1-methylpropyl]amino}benzene-1,4-dicarboxamide] |
| > 6.30 | CC(C)[C@H](C)Nc1cc(C(=O)NC2CC3CCC(C2)N3c2ccc(C(=O)C3CC3)cn2)c(Br)cc1C(N)=O (stereo partly drawn) [2-bromo-N-{8-[5-(cyclopropylcarbonyl)pyridin-2-yl]-8-azabicyclo[3.2.1]oct-3-endo-yl}-5-{[(1S)-1,2-dimethylpropyl]amino}benzene-1,4-dicarboxamide] |
| > 6.30 | CC(Nc1c(C(N)=O)ccc(C(=O)N[C@H]2C[C@H]3CC[C@@H](C2)N3c2ccc(C(=O)C3CC3)cn2)c1Cl)C1CC1 (stereo partly drawn) [2-chloro-N-{8-[5-(cyclopropylcarbonyl)pyridin-2-yl]-8-azabicyclo[3.2.1]oct-3-endo-yl}-3-[(1-cyclopropylethyl)amino]benzene-1,4-dicarboxamide] |
| > 6.30 | CCC(CC)Nc1cc(C(=O)N[C@H]2C[C@H]3CC[C@@H](C2)N3c2ccc(C(=O)C3CC3)cn2)c(Cl)cc1C(N)=O [2-chloro-N-{8-[5-(cyclopropylcarbonyl)pyridin-2-yl]-8-azabicyclo[3.2.1]oct-3-endo-yl}-5-[(1-ethylpropyl)amino]benzene-1,4-dicarboxamide] |
| > 6.30 | COc1c(C(N)=O)ccc(C(=O)NC2CC3CCC(C2)N3c2ccc(C(=O)N[C@@H](C)c3ccc(N4CCN(C)CC4)cc3)cn2)c1C (stereo partly drawn) [2-methyl-3-(methyloxy)-N-(8-{5-[({(1S)-1-[4-(4-methylpiperazin-1-yl)phenyl]ethyl}amino)carbonyl]pyridin-2-yl}-8-azabicyclo[3.2.1]oct-3-endo-yl)benzene-1,4-dicarboxamide] |
| 6.00 to 6.30 | Cc1cc(C(N)=O)ccc1C(=O)N[C@H]1C[C@H]2CC[C@@H](C1)N2c1ccc(C(=O)NCc2ccccc2)cn1 [2-methyl-N 1-[8-(5-{[(phenylmethyl)amino]carbonyl}pyridin-2-yl)-8-azabicyclo[3.2.1]oct-3-endo-yl]benzene-1,4-dicarboxamide] |
| 5.00 to 5.70 | Cc1c(C(N)=O)cccc1C(=O)N[C@H]1C[C@H]2CC[C@@H](C1)N2c1ccc(C(=O)NCc2ccccc2)cn1 [2-methyl-N-[8-(5-{[(phenylmethyl)amino]carbonyl}pyridin-2-yl)-8-azabicyclo[3.2.1]oct-3-endo-yl]benzene-1,3-dicarboxamide] |
| 5.00 to 5.70 | CCNc1c(C)c(C(=O)NC2CC3CCC(C2)N3c2ccc(C(=O)N[C@@H](C)c3ccc(N4CCN(C)CC4)cc3)cn2)cc(C)c1C(N)=O (stereo partly drawn) [3-(ethylamino)-2,5-dimethyl-N1-(8-{5-[({(1S)-1-[4-(4-methylpiperazin-1-yl)phenyl]ethyl}amino)carbonyl]pyridin-2-yl}-8-azabicyclo[3.2.1]oct-3-endo-yl)benzene-1,4-dicarboxamide] |
| > 6.30 | CC[C@@H](C)Nc1c(C(N)=O)cc(C)c(C(=O)NC2CC3CCC(C2)N3c2ccc(C(=O)C3CC3)cn2)c1Cl (stereo partly drawn) [3-chloro-N4-{8-[5-(cyclopropylcarbonyl)pyridin-2-yl]-8-azabicyclo[3.2.1]oct-3-endo-yl}-5-methyl-2-{[(1R)-1-methylpropyl]amino}benzene-1,4-dicarboxamide] |
| > 6.30 | Cc1cc(C(N)=O)c(NC2CCC2)cc1C(=O)N[C@H]1C[C@H]2CC[C@@H](C1)N2c1ccc(C(=O)C2CC2)cn1 [5-(cyclobutylamino)-N-{8-[5-(cyclopropylcarbonyl)pyridin-2-yl]-8-azabicyclo[3.2.1]oct-3-endo-yl}-2-methylbenzene-1,4-dicarboxamide] |
| > 6.30 | Cc1cc(C(N)=O)c(NC2CCCC2)cc1C(=O)N[C@H]1C[C@H]2CC[C@@H](C1)N2c1ccc(C(=O)C2CC2)cn1 [5-(cyclopentylamino)-N-{8-[5-(cyclopropylcarbonyl)pyridin-2-yl]-8-azabicyclo[3.2.1]oct-3-endo-yl}-2-methylbenzene-1,4-dicarboxamide] |
| > 6.30 | CCC(CC)Nc1cc(C(=O)N[C@H]2C[C@H]3CC[C@@H](C2)N3c2ccc(C(=O)CCC3CCN(C)CC3)cn2)c(C)cc1C(N)=O [5-[(1-ethylpropyl)amino]-2-methyl-N-(8-{5-[3-(1-methylpiperidin-4-yl)propanoyl]pyridin-2-yl}-8-azabicyclo[3.2.1]oct-3-endo-yl)benzene-1,4-dicarboxamide] |
| > 6.30 | CCC(CC)Nc1cc(C(=O)NC2CC3CCC(C2)N3c2ccc(C(=O)N[C@@H]3CCCN(C(C)C)C3)cn2)c(C)cc1C(N)=O (stereo partly drawn) [5-[(1-ethylpropyl)amino]-2-methyl-N-{8-[5-({[(3R)-1-(1-methylethyl)piperidin-3-yl]amino}carbonyi)pyridin-2-yl]-8-azabicyclo[3.2.1]oct-3-endo-yl}benzene-1,4-dicarboxamide] |
| > 6.30 | CCC(CC)Nc1cc(C(=O)NC2CC3CCC(C2)N3c2ccc(C(=O)N[C@@H]3CCN(C(C)C)C3)cn2)c(C)cc1C(N)=O (stereo partly drawn) [5-[(1-ethylpropyl)amino]-2-methyl-N-{8-[5-({[(3R)-1-(1-methylethyl)pyrrolidin-3-yl]amino}carbonyl)pyridin-2-yl]-8-azabicyclo[3.2.1]oct-3-endo-yl}benzene-1,4-dicarboxamide] |
| > 6.30 | CCC(CC)Nc1cc(C(=O)NC2CC3CCC(C2)N3c2ccc(C(=O)NCC3CCCN3CC)cn2)c(C)cc1C(N)=O (stereo not drawn) [5-[(1-ethylpropyl)amino]-N-{8-[5-({[(1-ethylpyrrolidin-2-yl)methyl]amino}carbonyl)pyridin-2-yl]-8-azabicyclo[3.2.1]oct-3-endo-yl}-2-methylbenzene-1,4-dicarboxamide] |

| Compound | pIC50 |
| --- | --- |
| Cc1c(OC(N)=O)cccc1C(=O)N[C@H]1C[C@H]2CC[C@@H](C1)N2c1ccc(C(=O)NCc2ccccc2)cn1 [2-methyl-3-({[8-(5-{[(phenylmethyl)amino]carbonyl}pyridin-2-yl)-8-azabicyclo[3.2.1]oct-3-endo-yl]amino}carbonyl)phenyl carbamate] | 5.00 to 5.70 |
| Cc1cc(OC(N)=O)ccc1C(=O)N[C@H]1C[C@H]2CC[C@@H](C1)N2c1ccc(C(=O)NCc2ccccc2)cn1 [3-methyl-4-({[8-(5-{[(phenylmethyl)amino]carbonyl}pyridin-2-yl)-8-azabicyclo[3.2.1]oct-3-endo-yl]amino}carbonyl)phenyl carbamate] | 5.00 to 5.70 |
